The text below walks through data of patent publication US20030045679A1, “Calcineurin modulators” (priority 2001, published 2003).

Data set [1] in a line: Cytotoxicity of A23187 and hydrogen peroxide on stable transfectants, propidium iodide uptake by flow cytometry. To be noted: Chinese hamster, Percent cytotoxicity, 4 μg/ml A23187. The protocol:
(§1) MATERIAL AND METHODS: Cell culture and treatment conditions. Chinese hamster HA-1 fibroblasts were maintained in Eagle's minimal essential medium supplemented with 8% heat inactivated fetal bovine serum, penicillin (100 units/ml) and streptomycin (100μg/ml). Cultures were grown in a humidified incubator atmosphere of 95% air and 5% CO2 at 37 °C.
(§2) Stress analyses. Control cells and lines 7, 10, and 15 were grown to log phase and equal confluency (75%). At this time, the cells were exposed to each stress agent and cytotoxicity measured. For the oxidative stress studies, a stock solution of hydrogen peroxide (30% w/w) was diluted in phosphate-buffered saline just prior to cell exposure. At the time of treatment, the HA-1 cultures were taken from the incubator and freshly diluted-peroxide added to the culture dishes. The cells were then returned to the incubator for the appropriate times.
(§3) Stable adapt78-overexpressing, vector control and non-transfected control HA-1 cells were exposed to 4 μg/ml calcium ionophore A23187 or […] for 60 minutes (A23187) or 90 minutes (hydrogen peroxide). Cytotoxicity was then determined by propidium iodide uptake using flow cytometry as follows. After treatment, monolayers were rinsed with PBS containing 3 mM EDTA, then covered with the same for 5 minutes at room temperature before suspending cells by gentle trituration. Cytotoxicity was then measured using propidium iodide and the stained cells analyzed by flow cytometry using a Becton Dickinson FAC Scan. The ModFit analytical software program was used to quantify the percentage of cytotoxicity.
(§4) Control cells and lines 7, 10, and 15 were grown to log phase and equal confluency (75%), then treated with 4 μg/ml A23187 and separately, 5 mM hydrogen peroxide. Cytotoxicity was then assessed by propidium iodide uptake using flow cytometry. Fold protection was calculated as the percent viability of cells compared with untransfected after subtracting out background (cells treated with solvent only). The average of untransfected percent viability was arbitrarily set at 1.0.
In general terms: In flow cytometry, cells or beads pass a laser one at a time.

Data set [2] has as its system HA-1 cells. The description is as above. To be noted: n = 4. The protocol:
as §1, §2, §3, §4

Data set [3] has as its system HA-1 cells. Particulars: stained 7 days later, cited from earlier work.
Data set [4] relates to HA-1 cells. Particulars: 160 μM hydrogen peroxide; cited from earlier work.

SMILES strings stand for the structures. Where two headings read alike, the source gives them in different places.

On to `CNc1ccc2oc(C[C@H]3O[C@@]4(CC[C@H]3C)O[C@H]([C@H](C)C(=O)c3ccc[nH]3)[C@H](C)C[C@H]4C)nc2c1C(=O)O` [A23187], for which the cytotoxicity at 60 min, 4 μg/ml in data set [1] (Untransfected HA-1 cells) is 48.2%; in data set [1] (Vector transfected HA-1 cells), 44%; in data set [1] (adapt78 overexpressing Clone 7), 10.1%; in data set [1] (adapt78 overexpressing Clone 10), 11.7%; in data set [1] (adapt78 overexpressing Clone 15), 11.8%. The “Fold protection +/− 1 S.D.” value is 4.8 +/− 0.5 fold in data set [2] (4 μg/ml A23187, Clone 7 vs Untransfected); 4.1 +/− 1.0 fold in data set [2] (4 μg/ml A23187, Clone 10 vs Untransfected); 4.1 +/− 0.3 fold in data set [2] (4 μg/ml A23187, Clone 15 vs Untransfected); 1.0 +/− 0.4 fold in data set [2] (4 μg/ml A23187, Untransfected HA-1 cells (set at 1.0)); 1.1 +/− 0.3 fold in data set [2] (4 μg/ml A23187, Vector transfected HA-1 cells vs Untransfected).
Consider `OO` [Peroxide, hydrogen peroxide], for which the “decrease in colony number compared with control” value in data set [3] (160 μM hydrogen peroxide for 5 hours) is 79.5%; in data set [3] (400 μM hydrogen peroxide for 5 hours), 97.8%. The “cytotoxicity using trypan blue exclusion” value in data set [4] was “no associated cytotoxicity was observed”. The “Fold protection +/− 1 S.D.” value is reported as 3.7 +/− 0.6 fold in data set [2] (5 mM hydrogen peroxide, Clone 10 vs Untransfected); 4.2 +/− 0.6 fold in data set [2] (5 mM hydrogen peroxide, Clone 15 vs Untransfected); 1.0 +/− 0.3 fold in data set [2] (5 mM hydrogen peroxide, Untransfected HA-1 cells (set at 1.0)); 1.0 +/− 0.4 fold in data set [2] (5 mM hydrogen peroxide, Vector transfected HA-1 cells vs Untransfected).
